The target in one test is ROCK2 (Homo sapiens (Human), UniProt O75116). Put plainly: Z-lyte FRET assay to measure kinase inhibition, ROCK2. It counts as biochemical.
The next test addresses ROCK1 (Homo sapiens (Human), UniProt Q13464). Kind of test: Z-lyte FRET assay to measure kinase inhibition, ROCK1. It counts as biochemical. The following applies: for inhibition at 50 µM: read-out: ROCK1 % inhibition @ 50 μM, 50 μM compound; for IC50: read-out: ROCK1 IC50.

Counter-ions that a name gives are not always drawn. Like-named read-outs stand apart in the source and are kept apart here.

ROCK2, sequence (O75116 whole entry, species assumed): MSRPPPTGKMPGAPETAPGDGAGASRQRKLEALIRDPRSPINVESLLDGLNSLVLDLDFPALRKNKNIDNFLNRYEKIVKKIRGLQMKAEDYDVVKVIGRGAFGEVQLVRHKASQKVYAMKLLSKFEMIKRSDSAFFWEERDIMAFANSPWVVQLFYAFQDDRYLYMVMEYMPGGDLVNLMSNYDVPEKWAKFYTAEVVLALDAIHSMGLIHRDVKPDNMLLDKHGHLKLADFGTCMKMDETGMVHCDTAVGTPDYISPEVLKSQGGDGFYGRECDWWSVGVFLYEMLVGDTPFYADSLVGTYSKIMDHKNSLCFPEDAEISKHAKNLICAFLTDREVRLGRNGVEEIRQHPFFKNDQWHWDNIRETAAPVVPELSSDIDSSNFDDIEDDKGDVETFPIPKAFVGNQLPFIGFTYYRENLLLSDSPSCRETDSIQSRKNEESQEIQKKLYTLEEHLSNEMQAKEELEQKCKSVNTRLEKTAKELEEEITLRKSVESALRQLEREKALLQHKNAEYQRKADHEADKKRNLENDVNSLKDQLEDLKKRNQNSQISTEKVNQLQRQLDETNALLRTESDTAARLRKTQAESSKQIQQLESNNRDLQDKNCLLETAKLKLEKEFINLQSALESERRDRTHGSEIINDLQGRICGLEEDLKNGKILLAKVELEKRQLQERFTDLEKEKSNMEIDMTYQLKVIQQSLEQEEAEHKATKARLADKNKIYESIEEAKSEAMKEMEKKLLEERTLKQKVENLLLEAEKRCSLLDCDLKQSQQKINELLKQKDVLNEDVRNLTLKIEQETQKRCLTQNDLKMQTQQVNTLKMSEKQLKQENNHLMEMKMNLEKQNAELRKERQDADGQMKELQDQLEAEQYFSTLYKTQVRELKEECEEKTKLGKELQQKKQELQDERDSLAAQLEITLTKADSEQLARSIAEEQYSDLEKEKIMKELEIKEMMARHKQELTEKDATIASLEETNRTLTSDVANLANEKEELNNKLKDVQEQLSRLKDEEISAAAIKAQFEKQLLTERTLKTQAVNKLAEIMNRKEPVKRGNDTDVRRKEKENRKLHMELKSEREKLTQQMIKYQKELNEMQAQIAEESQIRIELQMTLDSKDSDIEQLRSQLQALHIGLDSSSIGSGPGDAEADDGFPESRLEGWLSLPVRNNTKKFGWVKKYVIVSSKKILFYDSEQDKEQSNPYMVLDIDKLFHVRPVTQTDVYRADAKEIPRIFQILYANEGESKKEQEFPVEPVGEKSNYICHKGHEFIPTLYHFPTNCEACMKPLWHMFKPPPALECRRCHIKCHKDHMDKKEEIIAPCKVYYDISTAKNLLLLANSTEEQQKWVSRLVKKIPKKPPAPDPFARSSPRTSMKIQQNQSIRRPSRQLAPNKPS
ROCK1, sequence (Q13464 whole entry): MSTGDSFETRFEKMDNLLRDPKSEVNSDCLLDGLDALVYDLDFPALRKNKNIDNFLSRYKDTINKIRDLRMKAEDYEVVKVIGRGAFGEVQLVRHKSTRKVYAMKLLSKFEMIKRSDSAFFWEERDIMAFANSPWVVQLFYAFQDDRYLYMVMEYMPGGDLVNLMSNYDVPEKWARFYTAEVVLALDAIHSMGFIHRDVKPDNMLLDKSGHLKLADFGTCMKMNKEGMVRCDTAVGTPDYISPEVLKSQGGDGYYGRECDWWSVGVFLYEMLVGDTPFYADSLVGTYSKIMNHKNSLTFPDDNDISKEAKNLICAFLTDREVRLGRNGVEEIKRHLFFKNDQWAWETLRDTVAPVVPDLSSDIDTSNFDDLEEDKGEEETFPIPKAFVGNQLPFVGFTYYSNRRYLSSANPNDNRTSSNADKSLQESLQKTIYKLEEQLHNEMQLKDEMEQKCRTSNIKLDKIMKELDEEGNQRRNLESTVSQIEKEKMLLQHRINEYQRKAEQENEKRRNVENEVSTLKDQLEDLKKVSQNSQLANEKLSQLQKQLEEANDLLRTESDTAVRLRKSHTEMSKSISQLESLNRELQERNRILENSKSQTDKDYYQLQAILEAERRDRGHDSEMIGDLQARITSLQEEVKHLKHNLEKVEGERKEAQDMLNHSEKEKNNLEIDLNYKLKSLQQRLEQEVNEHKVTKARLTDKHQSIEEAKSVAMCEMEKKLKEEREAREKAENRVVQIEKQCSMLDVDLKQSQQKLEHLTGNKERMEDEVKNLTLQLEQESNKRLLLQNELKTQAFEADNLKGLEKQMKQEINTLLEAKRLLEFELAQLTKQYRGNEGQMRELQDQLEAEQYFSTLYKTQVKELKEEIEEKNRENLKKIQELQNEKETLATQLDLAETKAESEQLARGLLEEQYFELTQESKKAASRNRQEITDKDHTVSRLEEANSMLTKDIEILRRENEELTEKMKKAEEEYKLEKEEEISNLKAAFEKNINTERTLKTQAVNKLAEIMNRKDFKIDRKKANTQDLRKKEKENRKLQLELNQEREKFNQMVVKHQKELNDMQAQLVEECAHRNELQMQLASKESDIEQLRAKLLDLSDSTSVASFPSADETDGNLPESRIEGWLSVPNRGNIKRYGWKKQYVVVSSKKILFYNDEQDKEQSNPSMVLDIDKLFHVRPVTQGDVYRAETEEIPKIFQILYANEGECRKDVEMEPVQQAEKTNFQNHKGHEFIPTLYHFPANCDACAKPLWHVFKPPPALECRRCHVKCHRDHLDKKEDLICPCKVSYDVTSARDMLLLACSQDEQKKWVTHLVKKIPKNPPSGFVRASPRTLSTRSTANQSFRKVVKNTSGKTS

As usually defined, the IC50 is the midpoint of a concentration-inhibition curve. One may read the inhibition as the relative decrease from the control value, in per cent. On to `Nc1nccc(Nc2ccccc2)n1`, for which the values for the IC50 on ROCK2 and on ROCK1 were above 50000 nM and 55.3 ± 13.4 µM, respectively. Besides, the inhibition at 50 µM on ROCK1 was found to be 47 ± 6%.
For `Nc1nccc(Nc2cccc(S(N)(=O)=O)c2)n1` the same measures were 6100 ± 1100 nM, 6.1 ± 0.6 µM and 90 ± 2%.
For `NC(=O)c1ccc(Nc2ccnc(N)n2)cc1` the same measures were 11500 ± 1200 nM, 13.3 ± 1.7 µM and 82 ± 2%.
The corresponding values for `NC(=O)c1cccc(Nc2ccnc(N)n2)c1` are 33300 ± 2800 nM, 38.9 ± 0.9 µM and 54 ± 4%.
In the case of `CS(=O)(=O)c1cccc(Nc2ccnc(N)n2)c1`, the IC50 at ROCK2 was 7300 ± 2000 nM; at ROCK1 it was 6.7 ± 1.3 µM. The inhibition at 50 µM on ROCK1 came to 90 ± 1%.
Compound `Nc1nccc(N2CCc3ccccc32)n1` displayed a concentration for half-maximal inhibition (IC50) at ROCK2 of 3400 ± 300 nM. Further, at ROCK1, the inhibition at 50 µM came to 85 ± 4% and the IC50 turned out to be 6.6 ± 0.5 µM.
For `CSc1ccc(Nc2ccnc(N)n2)cc1` the same measures were 17100 ± 2800 nM, 76 ± 2% and 21 ± 8.8 µM.
For `COC(=O)c1cccc(Nc2ccnc(N)n2)c1` the same measures were 39600 ± 6200 nM, 63 ± 5% and 37 ± 8.8 µM.
For the compound `COC(=O)c1ccc(Nc2ccnc(N)n2)cc1`, the figures for the IC50 on ROCK2 and at ROCK1 were 13900 ± 1700 nM and 20.5 ± 8 µM, respectively. The inhibition at 50 µM at ROCK1 was 77 ± 3%.
For `Nc1nccc(N2CCCc3ccccc32)n1` the same measures were 35300 ± 5100 nM, 19.8 ± 4.3 µM and 69 ± 1%.
For `CC1Cc2ccccc2N1c1ccnc(N)n1` (centres unmarked) the same measures were 1900 ± 400 nM, 1.7 ± 0.2 µM and 97 ± 1%.
Take `Nc1nccc(Nc2ccc([N+](=O)[O-])cc2)n1`: the IC50 against ROCK2 was found to be 3700 ± 800 nM. Also, on ROCK1, the inhibition at 50 µM was 89 ± 2% and the IC50 was 3.9 ± 0.3 µM.
For `Nc1nccc(Nc2cccc([N+](=O)[O-])c2)n1` the same measures were 7820 ± 2300 nM, 91 ± 2% and 4.86 ± 0.6 µM.
The corresponding values for `COc1cccc(Nc2ccnc(N)n2)c1` are 42500 ± 6700 nM, 63 ± 5% and 30.2 ± 2.5 µM.
For `Nc1nccc(Nc2ccc(OC(F)F)cc2)n1` the same measures were 23400 ± 5500 nM, 64 ± 7% and 30 ± 3.2 µM.
`Nc1nccc(N2CCc3cc(Cl)ccc32)n1` came in with an IC50 against ROCK2 of 1200 ± 200 nM. Moreover, on ROCK1, the inhibition at 50 µM turned out to be 73 ± 3% and the IC50 came out at 1.5 ± 0.2 µM.
In the case of `Nc1nccc(-n2cnc3ccccc32)n1`, inhibition at ROCK2 was half-maximal at 37400 ± 4000 nM (IC50). Besides, on ROCK1, the inhibition at 50 µM came to 50 ± 1% and the IC50 worked out at 38.7 ± 1.6 µM.
At ROCK2, `Nc1nccc(-n2ccc3ccccc32)n1` yielded an IC50 of 4000 ± 300 nM. Besides, at ROCK1, the inhibition at 50 µM was determined as 88 ± 4% and the half-inhibitory concentration (IC50) amounted to 4.8 ± 0.3 µM.
For `Nc1nccc(N2CCc3ccc([N+](=O)[O-])cc32)n1` the same measures were 1800 ± 300 nM, 51 ± 1% and 2.2 ± 0.3 µM.
The corresponding values for `Nc1nccc(N2CCc3cc(F)ccc32)n1` are 700 ± 100 nM, 89 ± 7% and 1.2 ± 0.2 µM.
On to `CS(=O)(=O)c1ccc2c(c1)CCN2c1ccnc(N)n1`, for which it took 37900 ± 2000 nM to reach half-maximal inhibition at ROCK2 (IC50). At ROCK1, the inhibition at 50 µM was found to be 49 ± 4% and the IC50 was determined as 41 ± 2.3 µM.
For `CC1Cc2cc([N+](=O)[O-])ccc2N1c1ccnc(N)n1` (centres unmarked) the same measures were 400 ± 100 nM, 98 ± 2% and 0.5 ± 0.1 µM.
For `Nc1nccc(N2CCc3cc(Br)ccc32)n1` the same measures were 1200 ± 100 nM, 83 ± 5% and 1.7 ± 0.3 µM.
For `CC1CN(c2ccnc(N)n2)c2ccccc21` (centres unmarked) the same measures were 2600 ± 100 nM, 93 ± 2% and 4.8 ± 0.5 µM.
`CC1Cc2cc(Cl)ccc2N1c1ccnc(N)n1` (centres unmarked) showed an IC50 on ROCK2 of 500 ± 30 nM. For the same compound, at ROCK1, the inhibition at 50 µM came to 87 ± 10% and the IC50 amounted to 1.2 ± 0.1 µM.
For the compound `Nc1nccc(N2CCc3cc(S(N)(=O)=O)ccc32)n1`, half-maximal inhibition on ROCK2 (IC50) required 10300 ± 900 nM. At ROCK1, the inhibition at 50 µM amounted to 73 ± 4% and the IC50 worked out at 25.8 ± 2.6 µM.
Regarding `CC1Cc2cc(F)ccc2N1c1ccnc(N)n1` (centres unmarked), inhibition against ROCK2 was half-maximal at 200 ± 10 nM (IC50). On ROCK1, the inhibition at 50 µM is 97 ± 4% and the IC50 was 0.4 ± 0.1 µM.
The corresponding values for `Nc1nccc(N2CCc3ccc(F)cc32)n1` are 1340 ± 90 nM, 89 ± 4% and 3.7 ± 0.4 µM.
The corresponding values for `Nc1nccc(-n2ccc3ccc(F)cc32)n1` are 1700 ± 100 nM, 86 ± 5% and 4.9 ± 0.5 µM.
On to `Nc1nccc(-n2ccc3cc(Br)ccc32)n1`, for which it took 1700 ± 300 nM to reach half-maximal inhibition at ROCK2 (IC50). Further, on ROCK1, the inhibition at 50 µM was found to be 89 ± 1% and the IC50 is 2.1 ± 0.3 µM.
The corresponding values for `Nc1nccc(-n2ccc3ccc(Cl)cc32)n1` are 1000 ± 300 nM, 88 ± 0.3% and 1.2 ± 0.2 µM.
The corresponding values for `COc1ccc2ccn(-c3ccnc(N)n3)c2c1` are 4900 ± 1000 nM, 88 ± 2% and 4.9 ± 0.5 µM.
In the case of `Nc1nccc(-n2ccc3c(OCc4ccccc4)cccc32)n1`, the IC50 against ROCK2 was 400 ± 100 nM; at ROCK1, 0.8 ± 0.5 µM. The inhibition at 50 µM at ROCK1 stood at 80 ± 3%.
For `COc1ccc2c(ccn2-c2ccnc(N)n2)c1` the same measures were 250 ± 130 nM, 0.4 ± 0.1 µM and 96 ± 3%.
For `Cc1ccc2c(ccn2-c2ccnc(N)n2)c1` the same measures were 7100 ± 2100 nM, 8.3 ± 0.9 µM and 82 ± 5%.
On to `COc1ccc2c(c1)c(CCNC(C)=O)cn2-c1ccnc(N)n1`, for which the IC50 on ROCK2 stood at 5300 ± 1200 nM. In addition, on ROCK1, the inhibition at 50 µM came to 89 ± 1% and the IC50 is 4.9 ± 0.8 µM.
Take `Nc1nccc(-n2ccc3c(C(=O)NCc4ccccc4)cccc32)n1`: the figures for the IC50 against ROCK2 and on ROCK1 were 200 ± 100 nM and 1 ± 0.5 µM, respectively. The inhibition at 50 µM on ROCK1 worked out at 92 ± 1%.
For `Nc1nccc(-n2ccc3c(C(=O)NCCc4ccccc4)cccc32)n1` the same measures were 500 ± 100 nM, 2 ± 0.5 µM and 91 ± 1%.
The corresponding values for `Nc1nccc(-n2ccc3cc(NC(=O)CCc4ccccc4)ccc32)n1` are 8400 ± 2000 nM, 54.1 ± 1.1 µM and 60 ± 2%.
The corresponding values for `Nc1nccc(-n2ccc3cc(C(=O)NCCc4ccccc4)ccc32)n1` are 700 ± 300 nM, 2.8 ± 0.3 µM and 96 ± 1%.
For the compound `Nc1nccc(-n2ccc3cc(C(=O)NCc4ccccc4)ccc32)n1`, the IC50 against ROCK2 was determined as 300 ± 100 nM; on ROCK1 it was 2.4 ± 1.6 µM. For the same compound, the inhibition at 50 µM on ROCK1 turned out to be 96 ± 1%.
The corresponding values for `Nc1nccc(N2CCc3c(OCc4ccccc4)cccc32)n1` are 250 ± 70 nM, 0.48 ± 0.099 µM and 90 ± 1%.
The corresponding values for `Nc1nccc(-n2ccc3cc(OCc4ccccc4)ccc32)n1` are 16300 ± 5500 nM, 39 ± 6.9 µM and 76 ± 2%.
The corresponding values for `Nc1nccc(-n2ccc3c(OCCc4ccccc4)cccc32)n1` are 17000 ± 1700 nM, 53.6 ± 4.1 µM and 63 ± 5%.
Consider `Nc1nccc(-n2ccc3c(OCc4ccc(Cl)cc4)cccc32)n1`, for which 460 ± 80 nM corresponded to half-maximal inhibition at ROCK2 (IC50). On ROCK1, the inhibition at 50 µM was determined as 71 ± 2% and the IC50 came out at 1.9 ± 0.42 µM.
For the compound `Nc1nccc(-n2ccc3c(OCc4cccc(Cl)c4)cccc32)n1`, the IC50 against ROCK2 turned out to be 32700 ± 8100 nM; on ROCK1, 34.6 ± 8.2 µM. The inhibition at 50 µM on ROCK1 is 44 ± 9%.
For `Nc1nccc(-n2ccc3c(OCc4ccccc4Cl)cccc32)n1` the same measures were 19000 ± 5900 nM, 29.1 ± 8.2 µM and 62 ± 6%.
The corresponding values for `COc1cccc(CNC(=O)c2cccc3c2ccn3-c2ccnc(N)n2)c1` are 40 ± 30 nM, 0.15 ± 0.02 µM and 93 ± 7%.
The corresponding values for `Nc1nccc(-n2ccc3c(C(=O)NCc4cccc(Cl)c4)cccc32)n1` are 720 ± 130 nM, 6.8 ± 3 µM and 86 ± 4%.
On ROCK2, `Nc1nccc(-n2ccc3c(C(=O)NCc4cccc(F)c4)cccc32)n1` returned an IC50 of 260 ± 90 nM. In addition, on ROCK1, the inhibition at 50 µM was 72 ± 10% and the IC50 was found to be 2.7 ± 1.78 µM.
The corresponding values for `Nc1nccc(-n2ccc3c(C(=O)NCc4ccc(F)cc4)cccc32)n1` are 1100 ± 490 nM, 70 ± 3% and 10.5 ± 1 µM.
The corresponding values for `COc1ccccc1CNC(=O)c1cccc2c1ccn2-c1ccnc(N)n1` are 1800 ± 680 nM, 69 ± 3% and 6 ± 2 µM.
For `C[C@H](NC(=O)c1cccc2c1ccn2-c1ccnc(N)n1)c1ccccc1` the same measures were 1200 ± 320 nM, 102.2 ± 0.2% and 3.43 ± 0.44 µM.
For the compound `Nc1nccc(-n2ccc3c(C(=O)NCc4ccccc4F)cccc32)n1`, the IC50 against ROCK2 is 920 ± 480 nM. At ROCK1, the inhibition at 50 µM is 88.7 ± 5.96% and the IC50 is 5.67 ± 0.32 µM.
For `COc1cccc(CNC(=O)c2cccc3c2CCN3c2ccnc(N)n2)c1` the same measures were 250 ± 20 nM, 92.8 ± 3.64% and 1.62 ± 0.86 µM.
For `Nc1nccc(Nc2ccc(S(N)(=O)=O)cc2)n1` [1aa, 4-(2-Aminopyrimidin-4-ylamino)benzenesulfonamide hydrochloride], the IC50 against ROCK2 (hydrochloride) was found to be 25000 nM; on ROCK1 (hydrochloride) it was 38 µM.
Turning to `Nc1nccc(Nc2ccc(S(N)(=O)=O)cc2)n1` [drawing 83], the concentration for half-maximal inhibition (IC50) against ROCK2 is 25500 ± 5800 nM. For the same compound, at ROCK1, the inhibition at 50 µM was determined as 60 ± 3% and the IC50 was found to be 38.5 ± 3.4 µM.
The corresponding values for `CC(NC(=O)c1cccc2c1ccn2-c1ccnc(N)n1)c1ccccc1` (centres unmarked) [drawing 177] are 210 ± 150 nM, 85 ± 6% and 1.7 ± 0.5 µM.

For the origin of these results see patent US9616064B2, “Rho kinase inhibitors and methods of use” (H. LEE MOFFITT CANCER CENTER AND RESEARCH INSTITUTE, INC., priority 2011, dated 2017).
